For 51 molecules, EC50 results are on record in US8354403B2, “Pyrrolidine derived beta 3 adrenergic receptor agonists” (Merck Sharp & Dohme Corp., priority 2009, dated 2013).

T1 sequence (P13945 whole entry): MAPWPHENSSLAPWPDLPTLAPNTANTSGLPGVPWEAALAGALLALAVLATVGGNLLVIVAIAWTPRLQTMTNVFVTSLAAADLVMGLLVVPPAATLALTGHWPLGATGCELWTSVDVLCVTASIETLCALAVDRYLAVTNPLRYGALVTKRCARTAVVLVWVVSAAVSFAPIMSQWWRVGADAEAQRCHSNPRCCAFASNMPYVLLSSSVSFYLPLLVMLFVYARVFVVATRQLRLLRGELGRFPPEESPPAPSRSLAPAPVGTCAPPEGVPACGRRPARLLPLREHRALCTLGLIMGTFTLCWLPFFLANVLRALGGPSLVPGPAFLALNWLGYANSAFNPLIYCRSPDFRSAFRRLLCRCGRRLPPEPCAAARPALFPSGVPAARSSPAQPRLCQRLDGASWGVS

The first test concerns the target T1, human β3 adrenergic receptor (Homo sapiens, UniProt P13945).
T1 construct: expressed in transfected cells; host or cells: Chinese hamster ovary (CHO) cells, stably transfected
The test is described as follows: Beta-3 agonist in vitro functional assay: cAMP production (LANCE TR-FRET) in CHO cells stably transfected with the cloned β3 receptor. In kind it is cell-based. The conditions noted are these: Table 4; cAMP, CHO cells; read-out: Human β3 agonist functional activity. As for the experimental part: Chinese hamster ovary (CHO) cells, stably transfected with the cloned β-adrenergic receptor (β1, β2 or β3) are harvested after 3 days of subculturing. Harvesting of cells is done with Enzyme-free Dissociation Media (Specialty Media). Cells are then counted and resuspended in assay buffer (Hank's Balanced salt solution supplemented with 5 mM HEPES, […]) containing a phosphodiesterase inhibitor (IBMX, 0.6 mM). The reaction is initiated by mixing 6,000 cells in 6 μL with 6 μL Alexa Fluor labeled cAMP antibody (LANCE™ kit) which is then added to an assay well containing 12 μL of compound (diluted in assay buffer to 2× final concentration). The reaction proceeds for 30 minutes at RT and is terminated by the addition of 24 ul detection buffer (LANCE™ kit). The assay plate is then incubated for 1 h at RT and time-resolved fluorescence measured on a Perkin Elmer Envision reader or equivalent. The unknown cAMP level is determined by comparing fluorescence levels to a cAMP standard curve.
The non-selective, full agonist β-adrenergic ligand isoproterenol is used at all three receptors to determine maximal stimulation. […] Data are analyzed using Microsoft Excel and Graphpad Prism or an internally developed data analysis software package.
A general note: cAMP levels reflect the balance of adenylyl cyclase and phosphodiesterase activity.
On to `Cc1noc(C2CCN(C(=O)c3ccc(C[C@@H]4CC[C@H]([C@H](O)c5ccccc5)N4)cc3)C2)n1` (stereo partly drawn) [Example 11], for which the EC50 lay within 100 to 999 nM.

With `NC(=O)C1(F)CN(C(=O)c2ccc(C[C@@H]3CC[C@H]([C@H](O)c4ccccc4)N3)cc2)C1` [Example 4], the EC50 was 100 to 999 nM.

The test is the same for the next values; noted with them: Table 5; cAMP, CHO cells; read-out: Human β3 agonist functional activity.
`COC(=O)c1csc(C2CCN(C(=O)c3ccc(C[C@@H]4CC[C@H]([C@H](O)c5ccccc5)N4)cc3)CC2)n1` [Example 88]: the EC50 lay within 10 to 99.9 nM.

`O=C(c1ccc(C[C@@H]2CC[C@H]([C@H](O)c3ccccc3)N2)cc1)N1CCC(n2cnnn2)CC1` [Example 100]: the EC50 is 10 to 99.9 nM.

On to `Cc1cncnc1OC1CCN(C(=O)c2ccc(C[C@@H]3CC[C@H]([C@H](O)c4ccccc4)N3)cc2)CC1` [Example 153], for which the EC50 lay within 100 to 999 nM.

In the case of `Cn1cc(C2CCN(C(=O)c3ccc(C[C@@H]4CC[C@H]([C@H](O)c5ccccc5)N4)cc3)CC2)nn1` [Example 97], the EC50 lay within 100 to 999 nM.

In the case of `O=C(c1ccc(C[C@@H]2CC[C@H]([C@H](O)c3ccccc3)N2)cc1)N1CCC(Cn2ccncc2=O)CC1` [Example 151], the EC50 fell in the range of 10 to 99.9 nM.

Take `O=C(c1ccc(C[C@@H]2CC[C@H]([C@H](O)c3ccccc3)N2)cc1)N1CCC(n2ncnn2)CC1` [Example 102]: the EC50 was in the range of 1 to 9.9 nM.

For `CS(=O)(=O)C1CCN(C(=O)c2ccc(C[C@@H]3CC[C@H]([C@H](O)c4cccnc4)N3)cc2)CC1` [Example 123], the EC50 lay in the range of 100 to 999 nM.

Regarding `Cc1cncn1C1CCN(C(=O)c2ccc(C[C@@H]3CC[C@H]([C@H](O)c4cccnc4)N3)cc2)CC1` [Example 87], the EC50 fell in the range of 100 to 999 nM.

For `Cc1cncn1C1CCN(C(=O)c2ccc(C[C@@H]3CC[C@H]([C@H](O)c4ccccc4)N3)cc2)CC1` [Example 86], the EC50 was in the range of 100 to 999 nM.

For `O=C(c1ccc(C[C@@H]2CC[C@H]([C@H](O)c3ccccc3)N2)cc1)N1CCC(n2c(=O)[nH]c3cc(Cl)ccc32)CC1` [Example 75], the EC50 fell in the range of 100 to 999 nM.

On to `Cc1ccc(S(=O)(=O)C2CCN(C(=O)c3ccc(C[C@@H]4CC[C@H]([C@H](O)c5cccnc5)N4)cc3)CC2)cc1` [Example 135], for which the EC50 lay in the range of 100 to 999 nM.

For the molecule `NC(=O)C1CCN(C(=O)c2ccc(C[C@@H]3CC[C@H]([C@H](O)c4ccccc4)N3)cc2)CC1` [Example 116], the EC50 was in the range of 100 to 999 nM.

Turning to `O=C(O)C1CCN(C(=O)c2ccc(C[C@@H]3CC[C@H]([C@H](O)c4ccccc4)N3)cc2)CC1` [Example 117], the EC50 lay in the range of 100 to 999 nM.

Consider `O=C(c1ccc(C[C@@H]2CC[C@H]([C@H](O)c3ccccc3)N2)cc1)N1CCC(Cn2cccn2)CC1` [Example 143], for which the EC50 is 10 to 99.9 nM.

`O=C(c1ccc(C[C@@H]2CC[C@H]([C@H](O)c3ccccc3)N2)cc1)N1CCC(n2c(=O)[nH]c3nc(F)ccc32)CC1` [Example 73]: the EC50 lay in the range of 10 to 99.9 nM.

For `Cn1cnnc1C1CCN(C(=O)c2ccc(C[C@@H]3CC[C@H]([C@H](O)c4ccccc4)N3)cc2)CC1` [Example 98], the EC50 is 100 to 999 nM.

Consider `O=C(c1ccc(C[C@@H]2CC[C@H]([C@H](O)c3ccccc3)N2)cc1)N1CCC(N2C(=O)OCc3ccccc32)CC1` [Example 69], for which the EC50 was 1 to 9.9 nM.

In the case of `CNC(=O)c1ccccc1OC1CCN(C(=O)c2ccc(C[C@@H]3CC[C@H]([C@H](O)c4ccccc4)N3)cc2)CC1` [Example 157], the EC50 fell in the range of 100 to 999 nM.

Staying with this test, now noted: Table 7; cAMP, CHO cells; ranges as given for Tables 6 and 7; read-out: Human β3 agonist functional activity.
As for `N#CC1(c2ccccn2)C2CN(C(=O)c3ccc(C[C@@H]4CC[C@H]([C@H](O)c5ccccc5)N4)cc3)CC21` (stereo partly drawn) [Example 238], the EC50 was in the range of 10 to 99.9 nM.

Take `O=C(c1ccc(CC2CCC(C(O)c3ccccc3)N2)cc1)N1CC2C(C1)C2Cn1ccnn1` (stereo not drawn) [Example 233]: the EC50 lay within 100 to 999 nM.

The test is the same for the next values; noted with them: Table 8; Beta-3 agonist in vitro functional assay; read-out: Human β3 agonist functional activity.
Take `O=C(c1ccc(C[C@@H]2CC[C@H]([C@H](O)c3ccccc3)N2)cc1)N1CCC2(CC1)CC(c1ccc(F)cc1)CO2` (stereo partly drawn) [Example 310]: the EC50 lay in the range of 100 to 999 nM.

For `CC1(C)CC2(CCN(C(=O)c3ccc(C[C@@H]4CC[C@H]([C@H](O)c5ccccc5)N4)cc3)CC2)C(=O)O1` [Example 293], the EC50 was 1 to 9.9 nM.

Take `O=C1CCC2(CCN(C(=O)c3ccc(C[C@@H]4CC[C@H]([C@H](O)c5ccccc5)N4)cc3)CC2)O1` [Example 273]: the EC50 was in the range of 10 to 99.9 nM.

As for `O=C(c1ccc(C[C@@H]2CC[C@H]([C@H](O)c3ccccc3)N2)cc1)N1CCC2(CCNC2)CC1` [Example 306], the EC50 lay within 1 to 9.9 nM.

For `O=C(c1ccc(C[C@@H]2CC[C@H]([C@H](O)c3ccccc3)N2)cc1)N1CCC2(CC1)NCNC2=O` [Example 258], the EC50 fell in the range of 10 to 99.9 nM.

With `CC1(C)CC2(CCN(C(=O)c3ccc(C[C@@H]4CC[C@H]([C@H](O)c5ccc[n+]([O-])c5)N4)cc3)CC2)C(=O)O1` [Example 295], the EC50 lay in the range of 100 to 999 nM.

`O=C(c1ccc(C[C@@H]2CC[C@H]([C@H](O)c3ccccc3)N2)cc1)N1CCC2(CCCC2=O)CC1` [Example 316]: the EC50 was in the range of 1 to 9.9 nM.

In the case of `O=C(c1ccc(C[C@@H]2CC[C@H]([C@H](O)c3ccccc3)N2)cc1)N1CCC2(CCCN2)CC1` [Example 305], the EC50 lay within 100 to 999 nM.

Staying with this test, now noted: Table 9; Beta-3 agonist in vitro functional assay; read-out: Human β3 agonist functional activity.
In the case of `O=C(O)c1csc(N2CCN(C(=O)c3ccc(C[C@@H]4CC[C@H]([C@H](O)c5ccccc5)N4)cc3)CC2)n1` [Example 382], the EC50 lay in the range of 999 to 3000 nM.

Turning to `Cc1nnc(C(C)N2CCN(C(=O)c3ccc(C[C@@H]4CC[C@H]([C@H](O)c5ccccc5)N4)cc3)CC2)o1` (stereo partly drawn) [Example 424], the EC50 was in the range of 100 to 999 nM.

As for `CC(c1cnccn1)N1CCN(C(=O)c2ccc(C[C@@H]3CC[C@H]([C@H](O)c4ccccc4)N3)cc2)CC1` (stereo partly drawn) [Example 428], the EC50 lay in the range of 10 to 99.9 nM.

`CC(C)n1nnnc1CN1CCN(C(=O)c2ccc(C[C@@H]3CC[C@H]([C@H](O)c4ccccc4)N3)cc2)CC1` [Example 400]: the EC50 lay within 10 to 99.9 nM.

In the case of `O=C(c1ccc(C[C@@H]2CC[C@H]([C@H](O)c3ccccc3)N2)cc1)N1CCN(Cc2c(F)cccc2F)CC1` [Example 411], the EC50 was 1 to 9.9 nM.

With `O=C(c1ccccc1)N1CCN(C(=O)c2ccc(C[C@@H]3CC[C@H]([C@H](O)c4ccccc4)N3)cc2)CC1` [Example 347], the EC50 was 100 to 999 nM.

The test is the same for the next values; noted with them: Table 10; Beta-3 agonist in vitro functional assay; read-out: Human β3 agonist functional activity.
Take `CC(C(=O)NC1CCOC1)N1CCN(C(=O)c2ccc(C[C@@H]3CC[C@H]([C@H](O)c4ccccc4)N3)cc2)CC1` (stereo partly drawn) [Example 457]: the EC50 was 10 to 99.9 nM.

On to `CC(C(=O)N1CCc2ccncc2C1)N1CCN(C(=O)c2ccc(C[C@@H]3CC[C@H]([C@H](O)c4ccccc4)N3)cc2)CC1` (stereo partly drawn) [Example 506], for which the EC50 lay within 10 to 99.9 nM.

Regarding `CC(C(=O)N1C[C@H](F)[C@@H](F)C1)N1CCN(C(=O)c2ccc(C[C@@H]3CC[C@H]([C@H](O)c4ccccc4)N3)cc2)CC1` (stereo partly drawn) [Example 476], the EC50 fell in the range of 10 to 99.9 nM.

For the molecule `CC(C(=O)N1CCCCCC1)N1CCN(C(=O)c2ccc(C[C@@H]3CC[C@H]([C@H](O)c4ccccc4)N3)cc2)CC1` (stereo partly drawn) [Example 511], the EC50 was 100 to 999 nM.

Consider `CC(C(=O)NCC(C)(C)O)N1CCN(C(=O)c2ccc(C[C@@H]3CC[C@H]([C@H](O)c4ccccc4)N3)cc2)CC1` (stereo partly drawn) [Example 443], for which the EC50 lay in the range of 10 to 99.9 nM.

Take `CC(C(=O)N1CCCC2(CCCCO2)C1)N1CCN(C(=O)c2ccc(C[C@@H]3CC[C@H]([C@H](O)c4ccccc4)N3)cc2)CC1` (stereo partly drawn) [Example 498]: the EC50 lay within 10 to 99.9 nM.

In the case of `CCN(CC)C(=O)C(C)N1CCN(C(=O)c2ccc(C[C@@H]3CC[C@H]([C@H](O)c4ccccc4)N3)cc2)CC1` (stereo partly drawn) [Example 516], the EC50 lay within 100 to 999 nM.

For `CC(C(=O)N1CCC(O)CC1)N1CCN(C(=O)c2ccc(C[C@@H]3CC[C@H]([C@H](O)c4ccccc4)N3)cc2)CC1` (stereo partly drawn) [Example 489], the EC50 lay in the range of 10 to 99.9 nM.

`Cc1nc2c(o1)CN(C(=O)C(C)N1CCN(C(=O)c3ccc(C[C@@H]4CC[C@H]([C@H](O)c5ccccc5)N4)cc3)CC1)CC2` (stereo partly drawn) [Example 504]: the EC50 was 1 to 9.9 nM.

Regarding `Cc1nonc1CN(C)C(=O)C(C)N1CCN(C(=O)c2ccc(C[C@@H]3CC[C@H]([C@H](O)c4ccccc4)N3)cc2)CC1` (stereo partly drawn) [Example 512], the EC50 was in the range of 10 to 99.9 nM.

The same test, now with this note: Table 11; cAMP, CHO cells; read-out: Human β3 agonist functional activity.
Regarding `O=C(c1ccc(C[C@@H]2CC[C@H]([C@H](O)c3ccccc3)N2)cc1)N1CCn2cnnc2C1` [Example 548], the EC50 is 100 to 999 nM.

Staying with this test, now noted: Table 12; human β3 functional activity given as ranges; read-out: Human β3 agonist functional activity.
As for `CC(c1ccccc1F)N1CCN(C(=O)c2ccc(CC3CCC(C(O)c4ccccc4)N3)cc2)CC1` (single isomer, unassigned) [Example 574], the EC50 is 10 to 99.9 nM.

On to `CC1CC2(CCN(C(=O)c3ccc(CC4CCC(C(O)c5ccccc5)N4)cc3)CC2)C(=O)O1` (single isomer, unassigned) [Example 561], for which the EC50 fell in the range of 1 to 9.9 nM.

Still in this test, the particulars now being: given as a range; cAMP, CHO cells; read-out: human β3 functional activity.
In the case of `O=C(c1ccc(C[C@@H]2CC[C@H]([C@H](O)c3ccccc3)N2)cc1)N1CC2CC(n3cccn3)CC2C1` (stereo partly drawn) [Example 1, (R)-phenyl[(2R,5S)-5-(4-{[5-(1H-pyrazol-1-yl)hexahydrocyclopenta[c]pyrrol-2(1H)-yl]carbonyl}benzyl)pyrrolidin-2-yl]methanol], the EC50 is 10 to 99.9 nM.

For `O=C(c1ccc(C[C@@H]2CC[C@H]([C@H](O)c3ccccc3)N2)cc1)N1CCC2(CC1)CC(C1CC1)OC2=O` (single isomer, unassigned) [Ex. 553], the EC50 is 1 to 9.9 nM.
